Data on one substance can be found in patent publication US20120083522A1, “MODULATION OF INFLAMMATORY RESPONSES BY FACTOR XI” (Isis Pharmaceuitcals, inc., priority 2009, published 2012).

In the oligonucleotide strings, read from the 5' end, every base follows the letter of its sugar. An asterisk marks phosphorothioate; unmarked linkages are phosphodiester. Other units and linkages are bracketed, terminal groups are in braces. A string of capitals states the bases alone. e = 2'-O-(2-methoxyethyl) (MOE); [5mC] = 5-methylcytosine; d = 2'-deoxy (DNA)

The nature of one series: Cynomolgus monkeys: body and organ weights (Example 29). As to conditions: escalating doses 5, 10, 25 mg/kg s.c., day 29. Type of series: in vivo. How it is done: (§1) Groups, each consisting of two male and three female monkeys, were injected subcutaneously with ISIS 416838, ISIS 416850, ISIS 416858, ISIS 416864, or ISIS 417002 in escalating doses. Antisense oligonucleotide was administered to the monkeys at 5 mg/kg three times per a week for week 1; 5 mg/kg twice per week for weeks 2 and 3; 10 mg/kg three times per week for week 4; 10 mg/kg twice per week for weeks 5 and 6; 25 mg/kg three times per week for week 7; and 25 mg/kg twice per week for weeks 8, 9, 10, 11, and 12. One control group, consisting of two male and three female monkeys, was injected subcutaneously with PBS according to the same dosing regimen. An additional experimental group, consisting of two male and three female monkeys, was injected subcutaneously with ISIS 416850 in a chronic, lower dose regimen. Antisense oligonucleotide was administered to the monkeys at 5 mg/kg three times per week for week 1; 5 mg/kg twice per week for week 2 and 3; 10 mg/kg three times per week for week 4; and 10 mg/kg twice per week for weeks 5 to 12. Body weights were measured weekly. Blood samples were collected 14 days and 5 days before the start of treatment and subsequently once per week for Factor XI protein activity analysis in plasma and measurement of various hematologic factors. On day 85, the monkeys were euthanized by exsanguination while under deep anesthesia, and organs harvested for further analysis.
Body weights were taken once weekly throughout the dosing regimen. […] Organ weights were taken after the animals were euthanized and livers, kidneys and spleens were harvested and weighed. […] The ISIS oligonucleotide, ISIS 416850, given with the chronic dose regimen is distinguished from the other oligonucleotides with an asterisk (*).
In the case of “ISIS 417002: gapmer of Table 8 (antisense eG*eG*dT*dG*d[5mC]*dA*d[5mC]*dA*dG*dT*dT*dT*d[5mC]*dT*dG*eG*e[5mC]*eA*eG*eG)”, the Body weight was found to be 2622 g.

Still in this series, the particulars now being: escalating doses 5, 10, 25 mg/kg s.c., day 36.
Take “ISIS 417002: gapmer of Table 8 (antisense eG*eG*dT*dG*d[5mC]*dA*d[5mC]*dA*dG*dT*dT*dT*d[5mC]*dT*dG*eG*e[5mC]*eA*eG*eG)”: the Body weight came out at 2631 g.

Staying with this series, now noted: escalating doses 5, 10, 25 mg/kg s.c., day 43.
“ISIS 417002: gapmer of Table 8 (antisense eG*eG*dT*dG*d[5mC]*dA*d[5mC]*dA*dG*dT*dT*dT*d[5mC]*dT*dG*eG*e[5mC]*eA*eG*eG)” had a Body weight of 2630 g.

The series is the same for the next values; noted with them: escalating doses 5, 10, 25 mg/kg s.c., day 50.
Substance “ISIS 417002: gapmer of Table 8 (antisense eG*eG*dT*dG*d[5mC]*dA*d[5mC]*dA*dG*dT*dT*dT*d[5mC]*dT*dG*eG*e[5mC]*eA*eG*eG)” returned a Body weight of 2652 g.

The same series, now with this note: escalating doses 5, 10, 25 mg/kg s.c., day 57.
In turn, “ISIS 417002: gapmer of Table 8 (antisense eG*eG*dT*dG*d[5mC]*dA*d[5mC]*dA*dG*dT*dT*dT*d[5mC]*dT*dG*eG*e[5mC]*eA*eG*eG)” came in with a Body weight of 2654 g.

Staying with this series, now noted: escalating doses 5, 10, 25 mg/kg s.c., day 64.
On to “ISIS 417002: gapmer of Table 8 (antisense eG*eG*dT*dG*d[5mC]*dA*d[5mC]*dA*dG*dT*dT*dT*d[5mC]*dT*dG*eG*e[5mC]*eA*eG*eG)”, for which the Body weight was 2598 g.

The series is the same for the next values; noted with them: escalating doses 5, 10, 25 mg/kg s.c., day 71.
For the substance “ISIS 417002: gapmer of Table 8 (antisense eG*eG*dT*dG*d[5mC]*dA*d[5mC]*dA*dG*dT*dT*dT*d[5mC]*dT*dG*eG*e[5mC]*eA*eG*eG)”, the Body weight turned out to be 2727 g.

Staying with this series, now noted: escalating doses 5, 10, 25 mg/kg s.c., day 78.
As for “ISIS 417002: gapmer of Table 8 (antisense eG*eG*dT*dG*d[5mC]*dA*d[5mC]*dA*dG*dT*dT*dT*d[5mC]*dT*dG*eG*e[5mC]*eA*eG*eG)”, the Body weight is 2570 g.

The next series in a line: Cynomolgus monkeys: hematology assays (Example 29). Type of series: in vivo. As to conditions: day 8. The procedure: as §1
The ISIS oligonucleotide, ISIS 416850, given with the chronic dose regimen is distinguished from the other oligonucleotides with an asterisk (*).
For “ISIS 417002: gapmer of Table 8 (antisense eG*eG*dT*dG*d[5mC]*dA*d[5mC]*dA*dG*dT*dT*dT*d[5mC]*dT*dG*eG*e[5mC]*eA*eG*eG)”, the platelet count was found to be 435000 µL⁻¹.

The same series, now with this note: day 15.
As for “ISIS 417002: gapmer of Table 8 (antisense eG*eG*dT*dG*d[5mC]*dA*d[5mC]*dA*dG*dT*dT*dT*d[5mC]*dT*dG*eG*e[5mC]*eA*eG*eG)”, the platelet count turned out to be 410000 µL⁻¹.

Still in this series, the particulars now being: day 22.
In turn, “ISIS 417002: gapmer of Table 8 (antisense eG*eG*dT*dG*d[5mC]*dA*d[5mC]*dA*dG*dT*dT*dT*d[5mC]*dT*dG*eG*e[5mC]*eA*eG*eG)” gave a platelet count of 377000 µL⁻¹.

The series is the same for the next values; noted with them: day 29.
“ISIS 417002: gapmer of Table 8 (antisense eG*eG*dT*dG*d[5mC]*dA*d[5mC]*dA*dG*dT*dT*dT*d[5mC]*dT*dG*eG*e[5mC]*eA*eG*eG)”: the platelet count worked out at 410000 µL⁻¹.

The series is the same for the next values; noted with them: day 36.
The substance “ISIS 417002: gapmer of Table 8 (antisense eG*eG*dT*dG*d[5mC]*dA*d[5mC]*dA*dG*dT*dT*dT*d[5mC]*dT*dG*eG*e[5mC]*eA*eG*eG)” came in with a platelet count of 415000 µL⁻¹.

The same series, now with this note: day 43.
The substance “ISIS 417002: gapmer of Table 8 (antisense eG*eG*dT*dG*d[5mC]*dA*d[5mC]*dA*dG*dT*dT*dT*d[5mC]*dT*dG*eG*e[5mC]*eA*eG*eG)” showed a platelet count of 393000 µL⁻¹.

The same series, now with this note: day 50.
Consider “ISIS 417002: gapmer of Table 8 (antisense eG*eG*dT*dG*d[5mC]*dA*d[5mC]*dA*dG*dT*dT*dT*d[5mC]*dT*dG*eG*e[5mC]*eA*eG*eG)”, for which the platelet count was determined as 389000 µL⁻¹.

Still in this series, the particulars now being: day 57.
“ISIS 417002: gapmer of Table 8 (antisense eG*eG*dT*dG*d[5mC]*dA*d[5mC]*dA*dG*dT*dT*dT*d[5mC]*dT*dG*eG*e[5mC]*eA*eG*eG)”: the platelet count is 403000 µL⁻¹.

The same series, now with this note: day 64.
In the case of “ISIS 417002: gapmer of Table 8 (antisense eG*eG*dT*dG*d[5mC]*dA*d[5mC]*dA*dG*dT*dT*dT*d[5mC]*dT*dG*eG*e[5mC]*eA*eG*eG)”, the platelet count amounted to 436000 µL⁻¹.

Staying with this series, now noted: day 71.
For the substance “ISIS 417002: gapmer of Table 8 (antisense eG*eG*dT*dG*d[5mC]*dA*d[5mC]*dA*dG*dT*dT*dT*d[5mC]*dT*dG*eG*e[5mC]*eA*eG*eG)”, the platelet count came to 490000 µL⁻¹.

The same series, now with this note: day 78.
Substance “ISIS 417002: gapmer of Table 8 (antisense eG*eG*dT*dG*d[5mC]*dA*d[5mC]*dA*dG*dT*dT*dT*d[5mC]*dT*dG*eG*e[5mC]*eA*eG*eG)” gave a platelet count of 432000 µL⁻¹.

The series is the same for the next values; noted with them: day 85.
In turn, “ISIS 417002: gapmer of Table 8 (antisense eG*eG*dT*dG*d[5mC]*dA*d[5mC]*dA*dG*dT*dT*dT*d[5mC]*dT*dG*eG*e[5mC]*eA*eG*eG)” registered a platelet count of 418000 µL⁻¹.

Still in this series, the particulars now being: day −5.
With “ISIS 417002: gapmer of Table 8 (antisense eG*eG*dT*dG*d[5mC]*dA*d[5mC]*dA*dG*dT*dT*dT*d[5mC]*dT*dG*eG*e[5mC]*eA*eG*eG)”, the platelet count came to 466000 µL⁻¹.

The series is the same for the next values; noted with them: day −14.
In turn, “ISIS 417002: gapmer of Table 8 (antisense eG*eG*dT*dG*d[5mC]*dA*d[5mC]*dA*dG*dT*dT*dT*d[5mC]*dT*dG*eG*e[5mC]*eA*eG*eG)” had a platelet count of 442000 µL⁻¹.
